What follows are compounds tested against GLP-1 Receptor (Homo sapiens, UniProt P43220) (assay: GLP-1R agonist cAMP stimulation assay (HEK293/GLP1R/CRE-LUC cells, cAMP dynamic 2 kit)). Details: HEK293/CRE-Luc cell line stably expressing the GLP-1 Receptor; 30 min incubation at 37° C.; read-out: GLP1R cAMP Stimulation DR: EC50.
Type: cell-based
How it was run: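 HEK293/CRE-Luc cells stably expressing human GLP-1R stimulated 30 min at 37 °C, 5% CO2. cAMP detected with HTRF cAMP-d2/anti-cAMP cryptate reagents after 1 h at room temperature; % activity normalised between vehicle and maximal control.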

Chain of GLP-1 Receptor (P43220 24-463, species assumed): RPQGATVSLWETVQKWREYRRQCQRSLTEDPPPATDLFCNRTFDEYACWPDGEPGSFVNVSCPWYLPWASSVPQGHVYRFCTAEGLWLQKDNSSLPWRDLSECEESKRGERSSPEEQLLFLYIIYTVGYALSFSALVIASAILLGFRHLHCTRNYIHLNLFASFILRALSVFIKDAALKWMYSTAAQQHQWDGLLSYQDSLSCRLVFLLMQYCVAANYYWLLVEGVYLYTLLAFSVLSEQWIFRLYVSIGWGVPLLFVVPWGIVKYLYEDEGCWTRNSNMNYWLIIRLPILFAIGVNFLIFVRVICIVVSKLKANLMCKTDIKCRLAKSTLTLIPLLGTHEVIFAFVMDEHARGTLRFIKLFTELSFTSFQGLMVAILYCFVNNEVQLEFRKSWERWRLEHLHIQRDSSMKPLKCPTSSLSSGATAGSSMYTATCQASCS

EC50	Compound
190 pM	O=C(O)c1ccc2nc(CN3CCC(Oc4ccnc(Cc5ccc(Cl)cc5)n4)CC3)n(Cc3cn[nH]c3)c2n1 [Compound 193, 3-((1H-pyrazol-4-yl)methyl)-2-((4-((2-(4-chlorobenzyl)pyrimidin-4-yl)oxy)piperidin-1-yl)methyl)-3H-imidazo[4,5-b]pyridine-5-carboxylic acid]
140 pM	O=C(O)c1ccc2nc(CN3CCC(Oc4cncc(Cc5ccc(Cl)cc5)n4)CC3)n(C[C@@H]3CCO3)c2n1 [Compound 153a, 2-{[4-({6-[(4-chlorophenyl)methyl]pyrazin-2-yl}oxy)piperidin-1-yl]methyl}-3-{[(2S)-oxetan-2-yl]methyl}-3H-imidazo[4,5-b]pyridine-5-carboxylic acid]
5600 pM	O=C(O)c1ccc2nc(CN3CCC(Oc4cccc(Cn5ccc(Cl)cc5=O)n4)CC3)n(C[C@@H]3CCO3)c2n1 [Compound 149a, 2-{[4-({6-[(4-chloro-2-oxo-1,2-dihydropyridin-1-yl)methyl]pyridin-2-yl}oxy)piperidin-1-yl]methyl}-3-{[(2S)-oxetan-2-yl]methyl}-3H-imidazo[4,5-b]pyridine-5-carboxylic acid]
3400 pM	O=C(O)c1ccc2nc(CN3CCC(Oc4cccc(Cc5ccc(C(F)(F)F)cc5)n4)CC3)n(C[C@@H]3CCO3)c2n1 [Compound 145a, 3-{[(2S)-oxetan-2-yl]methyl}-2-({4-[(6-{[4-(trifluoromethyl)phenyl]methyl}pyridin-2-yl)oxy]piperidin-1-yl}methyl)-3H-imidazo[4,5-b]pyridine-5-carboxylic acid]
950 pM	Clc1ccc(Cc2nccc(OC3CCN(Cc4nc5ccc(-c6nnn[nH]6)nc5n4C[C@@H]4CCO4)CC3)n2)cc1 [Compound 199a, (S)-2-((4-((2-(4-chlorobenzyl)pyrimidin-4-yl)oxy)piperidin-1-yl)methyl)-3-(oxetan-2-ylmethyl)-5-(1H-tetrazol-5-yl)-3H-imidazo[4,5-b]pyridine]
42 pM	O=C(O)c1ccc2nc(C[C@H]3CC[C@H](Oc4ccnc(Cc5ccc(Cl)cc5)n4)CC3)n(C[C@@H]3CCO3)c2n1 [Compound 177a, 3-{[(2S)-oxetan-2-yl]methyl}-2-{[trans-4-({2-[(4-chlorophenyl)methyl]pyrimidin-4-yl}oxy)cyclohexyl]methyl}-3H-imidazo[4,5-b]pyridine-5-carboxylic acid]
1000 pM	O=C(O)c1ccc2nc(CN3CCC(Oc4cccc(Cc5ccccc5Cl)n4)CC3)n(C[C@@H]3CCO3)c2n1 [Compound 126a, (S)-2-((4-((6-(2-chlorobenzyl)pyridin-2-yl)oxy)piperidin-1-yl)methyl)-3-(oxetan-2-ylmethyl)-3H-imidazo[4,5-b]pyridine-5-carboxylic acid]
2400 pM	Cc1cn(Cc2ccc(Cl)cc2F)nc1OC1CCN(Cc2nc3ccc(C(=O)O)nc3n2C[C@@H]2CCO2)CC1 [Compound 133a, 2-{[4-({1-[(4-chloro-2-fluorophenyl)methyl]-4-methyl-1H-pyrazol-3-yl}oxy)piperidin-1-yl]methyl}-3-{[(2S)-oxetan-2-yl]methyl}-3H-imidazo[4,5-b]pyridine-5-carboxylic acid]
51000 pM	O=C(O)c1ccc2nc(CN3CCC(Oc4nc(Cc5ccc(Cl)cc5F)ccc4Cl)CC3)n(C[C@@H]3CCO3)c2n1 [Compound 137a, 2-{[4-({3-chloro-6-[(4-chloro-2-fluorophenyl)methyl]pyridin-2-yl}oxy)piperidin-1-yl]methyl}-3-{[(2S)-oxetan-2-yl]methyl}-3H-imidazo[4,5-b]pyridine-5-carboxylic acid]
620 pM	O=C(O)c1ccc2nc(CN3CCC(Oc4cccc(Cc5ccc(C6CC6)cc5)n4)CC3)n(C[C@@H]3CCO3)c2n1 [Compound 146a, 2-{[4-({6-[(4-cyclopropylphenyl)methyl]pyridin-2-yl}oxy)piperidin-1-yl]methyl}-3-{[(2S)-oxetan-2-yl]methyl}-3H-imidazo[4,5-b]pyridine-5-carboxylic acid]
370 pM	O=C(O)c1ccc2nc(C[C@H]3CC[C@H](Oc4ccnc(Cc5ccc(Cl)cc5)n4)CC3)n(C[C@@H]3CCO3)c2c1 [Compound 176a, 1-{[(2S)-oxetan-2-yl]methyl)-2-{[trans-4-({2-[(4-chlorophenyl)methyl]pyrimidin-4-yl}oxy)cyclohexyl]methyl}-1H-1,3-benzodiazole-6-carboxylic acid]
1700 pM	O=C(O)c1ccc2nc(CN3CCC(Oc4cc(Cc5ccc(Cl)cc5F)ccc4F)CC3)n(C[C@@H]3CCO3)c2n1 [Compound 114a, 2-[(4-{5-[(4-chloro-2-fluorophenyl)methyl]-2-fluorophenoxy}piperidin-1-yl)methyl]-3-{[(2S)-oxetan-2-yl]methyl}-3H-imidazo[4,5-b]pyridine-5-carboxylic acid]
290 pM	O=C(O)c1ccc2nc(CN3CCC(Oc4nc(Cc5ccc(Cl)cc5F)ccc4F)CC3)n(C[C@@H]3CCO3)c2n1 [Compound 111a, 2-{[4-({6-[(4-chloro-2-fluorophenyl)methyl]-3-fluoropyridin-2-yl}oxy)piperidin-1-yl]methyl}-3-{[(2S)-oxetan-2-yl]methyl}-3H-imidazo[4,5-b]pyridine-5-carboxylic acid]
120 pM	O=C(O)c1ccc2nc(CN3CCC(Oc4ccnc(Cc5ccc(Cl)cc5F)n4)CC3)n(C[C@@H]3CCO3)c2c1 [Compound 160a, 2-{[4-({2-[(4-chloro-2-fluorophenyl)methyl]pyrimidin-4-yl}oxy)piperidin-1-yl]methyl}-1-{[(2S)-oxetan-2-yl]methyl}-1H-1,3-benzodiazole-6-carboxylic acid]

Compound	EC50
CC(=O)Nc1ccc2nc(CN3CCC(Oc4cccc(Cc5ccc(Cl)cc5F)n4)CC3)n(C[C@@H]3CCO3)c2c1 [Compound 134a, N-(2-{[4-({6-[(4-chloro-2-fluorophenyl)methyl]pyridin-2-yl}oxy)piperidin-1-yl]methyl}-1-{[(2S)-oxetan-2-yl]methyl}-1H-1,3-benzodiazol-6-yl)acetamide]	58000 pM
O=C(O)c1ccc2nc(CN3CCC(C(F)(F)c4cccc(Cc5ccc(Cl)cc5F)n4)CC3)n(C[C@@H]3CCO3)c2n1 [Compound 173a, 2-{[4-({6-[(4-chloro-2-fluorophenyl)methyl]pyridin-2-yl}difluoromethyl)piperidin-1-yl]methyl}-3-{[(2S)-oxetan-2-yl]methyl}-3H-imidazo[4,5-b]pyridine-5-carboxylic acid]	3800 pM
O=C(O)c1ccc2nc(CN3CCC(Oc4cccc(C(F)(F)c5ccc(Cl)cc5F)n4)CC3)n(C[C@@H]3CCO3)c2n1 [Compound 129a, 2-{[4-({6-[(4-chloro-2-fluorophenyl)difluoromethyl]pyridin-2-yl}oxy)piperidin-1-yl]methyl}-3-{[(2S)-oxetan-2-yl]methyl}-3H-imidazo[4,5-b]pyridine-5-carboxylic acid]	910 pM

Same assay, conditions: HEK293/CRE-Luc cell line stably expressing the GLP-1 Receptor; 30 min incubation at 37° C.; read-out: GLP1R cAMP Stimulation DR: pEC50 (converted)

EC50	Compound
158 pM	O=C(O)c1ccc2nc(CN3CCC(Oc4cncc(Cc5ccc(Cl)cc5)n4)CC3)n(C[C@@H]3CCO3)c2n1 [Compound 153a, 2-{[4-({6-[(4-chlorophenyl)methyl]pyrazin-2-yl}oxy)piperidin-1-yl]methyl}-3-{[(2S)-oxetan-2-yl]methyl}-3H-imidazo[4,5-b]pyridine-5-carboxylic acid]
1000 pM	Clc1ccc(Cc2nccc(OC3CCN(Cc4nc5ccc(-c6nnn[nH]6)nc5n4C[C@@H]4CCO4)CC3)n2)cc1 [Compound 199a, (S)-2-((4-((2-(4-chlorobenzyl)pyrimidin-4-yl)oxy)piperidin-1-yl)methyl)-3-(oxetan-2-ylmethyl)-5-(1H-tetrazol-5-yl)-3H-imidazo[4,5-b]pyridine]

Compound	EC50
O=C(O)c1ccc2nc(CN3CCC(Oc4cccc(C(F)(F)c5ccc(Cl)cc5F)n4)CC3)n(C[C@@H]3CCO3)c2n1 [Compound 129a, 2-{[4-({6-[(4-chloro-2-fluorophenyl)difluoromethyl]pyridin-2-yl}oxy)piperidin-1-yl]methyl}-3-{[(2S)-oxetan-2-yl]methyl}-3H-imidazo[4,5-b]pyridine-5-carboxylic acid]	1000 pM
